Three molecules from US12097194B2, “Combination therapy for treating blood cancer” (SIGNALCHEM LIFESCIENCES CORPORATION, priority 2018, dated 2024) can be followed below.

Structures are written as SMILES. Read-outs that look alike come from different tables or passages of the source.

Assay [1] concerns MV4-11 AML cell line. The experiment in a line: Compound dose response assay (trypan blue % viability) and CompuSyn combination analysis, MV4-11. In kind it is cell-based. The note with it: Homo sapiens. How it is done: (§1) The AML cell lines Molm-13 and MV4-11 were obtained from DSMZ. The cells were maintained in culture using RPMI-1640 containing 10% heat-inactivated serum at 37° C./5% CO2. For all experiments, unless otherwise specified, the above-mentioned culture conditions were used. The BCL-2 inhibitors venetoclax (ABT-199) and navitoclax (ABT-263) were purchased from Chemietek. The Axl inhibitor 3-(5-(cyclopropylmethyl)-1,3,4-oxadiazol-2-yl)-5-(1-(piperidin-4-yl)-1H-pyrazol-4-yl)pyridin-2-amine (Compound A) was synthesized according to the method disclosed in WO2015/081257.
(§2) The AML cells Molm-13 and MV4-11 were plated at 5×10^4 cells/mL in 24-well plates and dosed the following day using single or combination of drugs with vehicle (DMSO) only controls. Each cell treatment was conducted in duplicates. Cells were collected 48- or 72-hours post drug treatment, mixed 1:1 with trypan blue and counted manually using a hemocytometer. A total of 100 cells (at the least) were counted for each sample. The % viability was calculated and normalized to vehicle treated controls. Individual IC50 of each compound was determined in each cell line using increasing doses. Four doses less than the IC50 for each compound for each cell line were chosen to conduct the combination studies. The IC50 values were calculated using Prism Version 5.01. CompuSyn software Version 1.0 was used to calculate the combination indices.
(§3) The fraction affected (FA) at the same dose was much higher for the compound combination groups compared to that of the single compound groups.

Assay [2] relates to MV4-11 cells. Kind of assay: MV4-11 cell line xenograft model of AML in NRG mice. It is filed as in vivo. To be noted: MV4-11 xenograft, 50 mg/kg QD each agent, oral; for bioluminescent signal (IVIS) / leukemia progression: 3 weeks (15 doses). How it is done: To investigate the safety and the effectiveness of Compound A monotherapy and combination therapy with ABT-199 for eliminating human leukemic cells in animals, a cell-line based xenograft mouse study was performed. First, MV4-11 cells were transduced with a GFP/Luciferase lentivirus vector to allow sorting/analyzing of human leukemic cells in mice and the non-invasive in vivo imaging system (IVIS) of the mice to track leukemia development and leukemia forming sites. Then, 2.5 million of GFP positive MV4-11 cells per mouse were injected intravenously into irradiated male NRG mice. Two weeks after injection, IVIS imaging was performed to confirm leukemia formation and consistent levels of leukemia burden in each mouse. Following that, mice received 3 weeks (total of 15 doses) of oral treatment with vehicle (control), 50 mg/kg Compound A alone QD, 50 mg/kg ABT-199 alone QD or a combination of Compound A (50 mg/kg, QD) and ABT-199 (50 mg/kg, QD).
After the treatment period, another round of IVIS imaging was performed to evaluate the effectiveness of the treatments. FIG. 8A and FIG. 8B show the bioluminescent imaging of representative mice before treatment and after oral gavages with indicated treatments, respectively. Darkened areas represent sites of observed bioluminescence resultant from presence of GFP/Luciferase leukemic cells. For comparison, healthy mice with no transduced leukemic cells (“no cells”) are also shown.
A representative group of mice was then sacrificed to compare engraftment of leukemic cells in peripheral blood (PB), bone marrow (BM), spleens and livers of each treatment group. Infiltration of leukemic cells into hematopoietic organs as spleen and liver was assessed by weights and histopathologic analysis. FIGS. 9A and 9B show spleen sizes and weights, and Haemotoxylin and Eosin staining of representative mice from each treatment group as indicated, respectively.
The remaining mice were monitored for survival between treatment groups. […] Median survival for each treatment group is indicated in days in brackets. P-values were calculated with the Log-rank (Mantel-Cox) test and significant differences between groups are indicated.

In assay [3] the test system is CD34+ stem and progenitor cells from AML patients. The experiment in a line: Patient-derived xenograft (PDX) model of AML in NRG-3GS mice. To be noted: 50 mg/kg QD each agent, oral gavage, 4 weeks, compared to healthy non-leukemic mice. It is filed as in vivo. From the text:
The relative effectiveness of Compound A and the combination of Compound A and ABT-199 in targeting primitive leukemic cells and/or to prevent leukemia development were investigated in in vivo assays. First, highly purified CD34+ stem and progenitor cells from two different AML patients (with high Axl and GAS6 expression; cohort 1=AML patient #2, cohort 2=AML patient #14, as determined in Example 2) were transduced with a GFP/Luciferase lentivirus reporter to allow non-invasive in vivo imaging (IVIS) of the mice to track leukemia development. […]
Leukemic cell burden was also measured in peripheral blood (PB), bone marrow (BM) and spleens in one set of euthanized mice (one mouse from each treatment group in both cohorts, respectively) and immunophenotypes of engrafted cells determined with fluorescently-labelled CD45, CD34, CD38, CD33, CD15, CD14, CD19 surface markers. Splenomegaly was assessed by spleen sizes and weights (FIG. 5).
All remaining mice were monitored for symptoms of disease development (weight loss, lethargy etc.) and survival between treatment groups compared. […] P-values were calculated with the Log-rank (Mantel-Cox) test and significant differences between groups are indicated.

The test system of assay [4] is Molm-13 AML cell line. Kind of assay: Compound dose response assay (trypan blue % viability) and CompuSyn combination analysis, Molm-13. In kind it is cell-based. The note with it: Homo sapiens. As to the method: as §1, §2, §3
Where [5] appears, read: BCL-2 inhibitor + Cmpd A, read-out: IC50 (nM) of BCL-2 inhibitor in the presence of Compound A.
The mark [6] stands for this setting: single agent, % viability normalized to vehicle, 48 or 72 hours post treatment, read-out: IC50 (nM), single agent.

One may read the IC50 as the concentration that inhibits the measured activity by half. For the molecule `CC1(C)CCC(CN2CCN(c3ccc(C(=O)NS(=O)(=O)c4ccc(NCC5CCOCC5)c([N+](=O)[O-])c4)c(Oc4cnc5[nH]ccc5c4)c3)CC2)=C(c2ccc(Cl)cc2)C1` [ABT-199, Venetoclax], the IC50 stood at 0.99 nM in assay [1] (setting [5]), 20.5 nM in assay [1] (setting [6]), 9.9 nM in assay [4] (setting [5]) and 55.9 nM in assay [4] (setting [6]). For the same molecule, the “spleen enlargement (spleen sizes and weights)” value in assay [2] (3 weeks) was “increased size and weight in the spleens”. Further, the “bioluminescent signal (IVIS) / leukemia progression” value in assay [2] is listed as “aggressive leukemia progression”. For the same molecule, the “splenomegaly (spleen sizes and weights)” value in assay [3] is given as “significantly enlarged”.
Regarding `CC1(C)CCC(c2ccc(Cl)cc2)=C(CN2CCN(c3ccc(C(=O)NS(=O)(=O)c4ccc(N[C@H](CCN5CCOCC5)CSc5ccccc5)c(S(=O)(=O)C(F)(F)F)c4)cc3)CC2)C1` [ABT-263, Navitoclax], the IC50 in assay [1] (setting [5]) was 36.8 nM; in assay [1] (setting [6]) it was 93.5 nM; in assay [4] (setting [5]), 116 nM; in assay [4] (setting [6]) it was 358 nM.
Turning to `Nc1ncc(-c2cnn(C3CCNCC3)c2)cc1-c1nnc(CC2CC2)o1` [Compound A, 3-(5-(cyclopropylmethyl)-1,3,4-oxadiazol-2-yl)-5-(1-(piperidin-4-yl)-1H-pyrazol-4-yl)pyridin-2-amine], the IC50 in assay [1] (setting [6]) turned out to be 421 nM. In assay [2] (3 weeks), the “leukemia propagating activity in vivo” value was “can reduce leukemia propagating activity in vivo”; the “spleen enlargement (spleen sizes and weights)” value is given as “no sign of spleen enlargement”. In addition, the “bioluminescent signal (IVIS) / leukemia progression” value in assay [2] is “dramatically lower intensity bioluminescent signals compared to vehicle and ABT-199 treated mice”. The “splenomegaly (spleen sizes and weights)” value in assay [3] is on record as “significantly enlarged”. For the same molecule, in assay [4] (setting [6]), the IC50 was 430 nM.
